The target in assay [1] is insulin receptor (IR) (Homo sapiens, UniProt P06213). Kind of assay: Binding to the insulin receptor by ultraviolet spectroscopy. The note with it: UV spectroscopy. On the procedure:
UV spectroscopy in a crystal plate was used to investigate whether CAP has specificity for estrogen alone or whether it can bind to other naturally occurring hormones. To start, CAP was dissolved in a 1:1 solution of water to ethanol at 1 mg/mL ( 3.27×10^−3 M ) and then diluted by thirds eight times. Next, the hormones were dissolved in a 1:1 solution of water to ethanol at a 1/100 dilution. An amount of 50 μL of each CAP dilution was added to 3 wells of a crystal plate, with one well serving as the control, with another 50 μL of 1:1 water to ethanol added, and the other two serving as experimental duplicates, with 50 μL of the prepared hormone solution added. Then, two additional wells were prepared to serve as controls: one containing 100 μL of 1:1 water to ethanol and the other containing 50 μL of prepared hormone solution and 50 μL of 1:1 water to ethanol. Finally, the plate was incubated for 1 h and read in a Spectramax UV-VIS scanning spectrophotometer, spanning wavelengths from 190 to 400 nm. Data analysis involved the subtraction of observed absorbance values from expected absorbance values generated from the control wells ([CAP + 1:1 solution] + [hormone + 1:1 solution] − [1:1 solution]) and plotting them as a function of CAP concentration. Because the solvent (1:1 solution of water–ethanol) was used as a control and subtracted from all wells, the resulting data reflected only the absorbances of the solute compounds. Since each compound has a different lambda maximal absorbance, analysis of the resulting data required finding one common wavelength at which the additions and subtractions of the spectra could be carried out and at which the absorbance of each compound was maximized.
[17, 19, 20, 21, 22, 23]. […] Because CAP binds to INS, it was possible that it might antagonize INS binding to its receptor. […] Two types of ultraviolet spectroscopy experiments were performed. In one, INS (1 µM) and the IR were kept constant and the concentration of CAP increased from 0.1 µM to 100 µM. In the other, the CAP (25 µM) and IR were kept constant and the concentration of INS increased from 10 nM to 10 µM. In neither experiment was any significant change in the INS binding curve observed.
CAP did bind to the ESR1 with what appears to be a high affinity (Kd = 0.9 µM) and a lower affinity (Kd = 10 µM) site. […] Other vanilloid compounds also bound to the ESR1 but with lower affinity than CAP (Figure 6). None bound to the IR.

In assay [2] the target is T1, ESR1 (Homo sapiens, UniProt P03372).
T1 construct: purchased Invitrogen-Thermofisher
T1 sequence (P03372 1-595): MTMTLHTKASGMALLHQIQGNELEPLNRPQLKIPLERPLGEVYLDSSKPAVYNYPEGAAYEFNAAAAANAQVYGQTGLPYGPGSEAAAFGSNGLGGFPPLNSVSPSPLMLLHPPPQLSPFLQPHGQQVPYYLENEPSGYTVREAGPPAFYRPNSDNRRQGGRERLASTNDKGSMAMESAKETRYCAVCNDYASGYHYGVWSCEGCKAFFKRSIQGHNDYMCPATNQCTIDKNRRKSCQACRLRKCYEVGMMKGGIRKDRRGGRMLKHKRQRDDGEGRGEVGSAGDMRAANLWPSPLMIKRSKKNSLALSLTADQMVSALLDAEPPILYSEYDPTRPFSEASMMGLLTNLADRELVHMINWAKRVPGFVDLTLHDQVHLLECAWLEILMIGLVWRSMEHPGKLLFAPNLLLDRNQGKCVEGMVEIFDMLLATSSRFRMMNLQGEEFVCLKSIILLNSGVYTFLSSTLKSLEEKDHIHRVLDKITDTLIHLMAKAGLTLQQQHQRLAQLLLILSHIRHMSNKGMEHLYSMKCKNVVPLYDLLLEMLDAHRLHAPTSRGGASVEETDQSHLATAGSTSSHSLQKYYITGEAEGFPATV
As to the kind of experiment: Competitive-binding ELISA of EST-HRP binding to the estrogen receptor. The note with it: for shift of the estradiol (EST-HRP) binding curve: maximal shift. In general terms: ELISA stands for enzyme-linked immunosorbent assay.

Assay [3] has as its system Mice. Set-up: method as in PMID 23536811. The conditions noted are these: cited from earlier work.
In assay [4] the test system is Human (male). Set-up: method as in PMID 17615999. The note with it: cited from earlier work.
Assay [5] has as its system Human, Mice. Set-up: method as in PMID 29772784. The note with it: Both ***; cited from earlier work.
For assay [6], the system named is Mice. Set-up: method as in PMID 23958300. The note with it: cited from earlier work.
Assay [7] has as its system Human HepG2 cells. Set-up: method as in PMID 30987128. The conditions noted are these: cited from earlier work.
Assay [8] relates to Human (prostate cancer cells). Set-up: method as in PMID 19705615. The note with it: cited from earlier work.
The test system of assay [9] is Mice: TRPV1+ vs. TRPV1-. Set-up: method as in PMID 32400193. The conditions noted are these: cited from earlier work.

Entries after “also recorded” stand apart in the source; their conditions may differ. Where two headings read alike, the source gives them in different places. A value given as a limit tells only on which side of the number the result lay.

Chain of insulin receptor (IR) (P06213 28-1382, species assumed): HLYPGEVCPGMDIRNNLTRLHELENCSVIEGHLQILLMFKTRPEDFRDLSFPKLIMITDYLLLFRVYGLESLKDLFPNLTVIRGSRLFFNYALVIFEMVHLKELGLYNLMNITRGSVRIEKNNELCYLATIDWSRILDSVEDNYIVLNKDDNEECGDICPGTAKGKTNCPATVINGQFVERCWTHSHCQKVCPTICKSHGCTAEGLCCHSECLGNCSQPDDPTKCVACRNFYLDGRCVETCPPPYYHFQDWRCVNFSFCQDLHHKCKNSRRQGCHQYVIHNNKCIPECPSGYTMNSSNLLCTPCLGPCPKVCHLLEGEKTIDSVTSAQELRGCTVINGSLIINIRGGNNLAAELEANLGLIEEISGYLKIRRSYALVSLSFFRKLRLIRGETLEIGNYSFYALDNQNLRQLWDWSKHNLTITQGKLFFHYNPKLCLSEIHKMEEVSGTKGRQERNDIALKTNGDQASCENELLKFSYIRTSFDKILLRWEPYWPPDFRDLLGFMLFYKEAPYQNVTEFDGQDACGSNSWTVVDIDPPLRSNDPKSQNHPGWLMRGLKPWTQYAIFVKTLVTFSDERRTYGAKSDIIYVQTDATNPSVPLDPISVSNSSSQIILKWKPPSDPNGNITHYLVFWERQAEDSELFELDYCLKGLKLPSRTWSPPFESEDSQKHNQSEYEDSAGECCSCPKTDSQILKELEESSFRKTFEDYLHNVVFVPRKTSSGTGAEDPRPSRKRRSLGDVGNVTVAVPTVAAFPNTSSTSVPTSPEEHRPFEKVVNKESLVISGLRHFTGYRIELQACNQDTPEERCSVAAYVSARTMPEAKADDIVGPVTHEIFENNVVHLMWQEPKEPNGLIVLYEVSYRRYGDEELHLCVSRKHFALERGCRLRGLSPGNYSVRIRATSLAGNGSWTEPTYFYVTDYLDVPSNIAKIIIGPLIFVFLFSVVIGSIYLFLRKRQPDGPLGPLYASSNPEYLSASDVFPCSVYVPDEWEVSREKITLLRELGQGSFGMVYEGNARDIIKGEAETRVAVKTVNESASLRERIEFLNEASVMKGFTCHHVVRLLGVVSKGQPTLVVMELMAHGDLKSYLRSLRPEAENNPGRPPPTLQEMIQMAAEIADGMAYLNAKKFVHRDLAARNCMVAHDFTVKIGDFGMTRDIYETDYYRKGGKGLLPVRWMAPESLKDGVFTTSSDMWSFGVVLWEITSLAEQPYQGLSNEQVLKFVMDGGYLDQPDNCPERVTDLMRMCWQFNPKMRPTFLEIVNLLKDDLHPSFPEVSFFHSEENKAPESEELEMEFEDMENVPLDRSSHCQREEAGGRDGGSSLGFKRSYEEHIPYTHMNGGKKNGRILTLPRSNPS

Take `COc1cc(CNC(=O)CCCC/C=C/C(C)C)ccc1O` [Capsaicin, trans-8-methyl-N-vanillyl-6-nonenamide]: the “binding to the insulin receptor (in words)” value in assay [1] (listed as CAP) is on record as “did not bind significantly to the IR except at concentrations well beyond those physiologically possible”; in assay [1] (listed as capsaicin) it was “not the insulin receptor”. Besides, the “competition with estradiol for binding to ESR1” value in [2] is reported as “did not compete with estradiol for binding to ESR1”. In addition, in assay [2] (listed as CAP), the “effect on estradiol (EST-HRP) binding to the estrogen receptor” value was “enhanced binding of estradiol to its receptor in a concentration-dependent manner; also recorded: increases binding of estradiol to its receptor”. Moreover, the “shift of the estradiol (EST-HRP) binding curve” value in [2] is “approximately a half of a log unit”; in assay [2] (listed as CAP), “half-log leftward shift”. Further, the “Capsaicin Upregulates” value is “>Ca^2+ ion release into the cell via TRPV-1 activation >Muscle actin–myosin interaction >Force generation >Intramuscular triglyceride consumption” in [3]; “>Sympathetic modulation (adrenal catecholamine secretion) and thermogenesis” in assay [4]; “>INS sensitivity—TRPV-1 activation stimulated GLP-1 release * >Fatty acid oxidation—modulated via TRPV1 activation >INS secretion from pancreatic β-cells ***” in assay [5]; “>Glucose uptake via AMPK activation and increasing p38 MAPK phosphorylation >Stimulation of ROS generation” in assay [6]; “>Activation of AMPK pathway” in assay [7]. Further, the figures for the “Downregulates or Inhibits” value in assay [5], in [7] and in assay [9] were “> Inflammatory factors **”, “> Lipogenesis > Inhibition of AKT/mTOR pathway” and “>Blocked metastatic burden >Mechanism unknown”, respectively. In addition, the “Cancer-Related Effects” value in [8] was “>Induces apoptosis”; in assay [9], “>Chemoprevention”. In [8], the Upregulates entry is given as “>Cleavage of procaspase-3 to caspase-3 >Interaction with caspase-1 >TRPV1-mediated Ca+ influx”.
